“And” between values parts separate entries of the source, which are not always exact repeats. Identical values can stand only once.

One data set addresses human NaV1.4 (Homo sapiens, UniProt P35499). Description: PatchXpress (PX) automated electrophysiology, human NaV1.4. The format is cell-based. The note with it: for IC50: PX platform, at least ten cells, two to three data points per concentration. The protocol:
Human NaV (hNaV) stably transfected cell lines in HEK293 or CHO backgrounds and cell culture methods were as previously described. hNaV1.1-hNaV1.7 cells were obtained from Eurofins Pharma Discovery Services (St. Charles, MO), and hNaV1.8 cells were generated in house. Whole cell patch clamp, PatchXpress, and IWQ electrophysiology voltage protocols as well as DRG neuron isolation were carried out as previously described. NaV1.7-NaV1.5 chimeras were generated and evaluated in BacMam transduced U2-OS cells on the IWQ platform as previously described.

In a further data set the target is human NaV1.5 (Homo sapiens, UniProt Q14524). Description: PatchXpress (PX) automated electrophysiology, human NaV1.5. The note with it: human; PX platform; at least ten cells, two to three data points per concentration. The format is cell-based.
In data set [1] the target is T1, human NaV1.7 (Homo sapiens, UniProt Q15858). Description: PatchXpress (PX) automated electrophysiology, human NaV1.7 in HEK293 cells. The format is cell-based. The note with it: PX platform, voltage protocol with 20% of channels inactivated, at least ten cells, two to three data points per concentration.
T1 sequence (Q15858 whole entry): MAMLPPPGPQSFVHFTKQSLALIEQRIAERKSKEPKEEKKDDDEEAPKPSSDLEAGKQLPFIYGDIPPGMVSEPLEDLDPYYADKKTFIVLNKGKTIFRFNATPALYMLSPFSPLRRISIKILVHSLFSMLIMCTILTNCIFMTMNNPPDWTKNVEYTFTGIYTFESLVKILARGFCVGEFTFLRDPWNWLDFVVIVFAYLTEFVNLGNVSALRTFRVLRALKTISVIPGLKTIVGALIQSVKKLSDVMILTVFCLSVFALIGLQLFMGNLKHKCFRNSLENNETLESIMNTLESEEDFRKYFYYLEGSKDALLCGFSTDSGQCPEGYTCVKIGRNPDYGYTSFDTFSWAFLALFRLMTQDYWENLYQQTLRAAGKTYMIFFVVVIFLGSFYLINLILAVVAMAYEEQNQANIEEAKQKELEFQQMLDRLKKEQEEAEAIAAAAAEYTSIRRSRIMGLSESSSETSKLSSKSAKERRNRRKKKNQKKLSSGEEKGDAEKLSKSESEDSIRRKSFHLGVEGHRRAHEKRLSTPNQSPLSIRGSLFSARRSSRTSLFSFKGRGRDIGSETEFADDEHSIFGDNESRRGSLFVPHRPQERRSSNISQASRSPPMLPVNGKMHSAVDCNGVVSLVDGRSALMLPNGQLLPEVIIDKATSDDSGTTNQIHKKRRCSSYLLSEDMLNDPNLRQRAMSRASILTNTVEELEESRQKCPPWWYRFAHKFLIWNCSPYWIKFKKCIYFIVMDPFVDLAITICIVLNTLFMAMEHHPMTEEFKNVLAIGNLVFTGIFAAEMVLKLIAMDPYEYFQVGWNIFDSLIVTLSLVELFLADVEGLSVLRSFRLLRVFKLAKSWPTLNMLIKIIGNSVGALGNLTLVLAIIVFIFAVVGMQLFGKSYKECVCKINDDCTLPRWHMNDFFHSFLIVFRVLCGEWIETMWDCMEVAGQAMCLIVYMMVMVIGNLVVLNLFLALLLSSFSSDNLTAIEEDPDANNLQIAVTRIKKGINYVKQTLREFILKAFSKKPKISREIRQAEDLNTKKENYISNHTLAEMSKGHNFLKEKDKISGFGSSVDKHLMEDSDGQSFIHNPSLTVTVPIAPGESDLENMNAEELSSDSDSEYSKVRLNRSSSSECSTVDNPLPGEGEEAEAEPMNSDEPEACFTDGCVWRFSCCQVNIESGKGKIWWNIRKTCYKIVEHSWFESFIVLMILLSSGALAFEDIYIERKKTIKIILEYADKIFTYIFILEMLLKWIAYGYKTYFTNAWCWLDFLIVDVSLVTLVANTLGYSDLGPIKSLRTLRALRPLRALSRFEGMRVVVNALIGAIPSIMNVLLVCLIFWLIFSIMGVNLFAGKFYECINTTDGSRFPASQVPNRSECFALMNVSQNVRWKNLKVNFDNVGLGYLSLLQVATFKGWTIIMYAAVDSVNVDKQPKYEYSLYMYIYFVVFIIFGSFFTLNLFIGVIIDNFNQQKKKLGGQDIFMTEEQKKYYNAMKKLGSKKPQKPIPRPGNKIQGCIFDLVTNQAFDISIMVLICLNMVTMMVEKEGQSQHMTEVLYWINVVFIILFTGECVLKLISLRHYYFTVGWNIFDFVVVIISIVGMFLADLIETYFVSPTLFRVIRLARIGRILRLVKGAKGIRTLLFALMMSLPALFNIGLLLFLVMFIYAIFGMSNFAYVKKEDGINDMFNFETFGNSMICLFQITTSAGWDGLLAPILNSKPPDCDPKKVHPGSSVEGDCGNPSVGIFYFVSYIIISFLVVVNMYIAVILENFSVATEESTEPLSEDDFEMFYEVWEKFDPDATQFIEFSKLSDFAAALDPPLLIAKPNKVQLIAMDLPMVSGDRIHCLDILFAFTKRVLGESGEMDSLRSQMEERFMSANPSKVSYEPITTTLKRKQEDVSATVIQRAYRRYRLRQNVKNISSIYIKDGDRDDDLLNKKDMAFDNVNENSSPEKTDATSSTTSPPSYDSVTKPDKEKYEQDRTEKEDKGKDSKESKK
Data set [2] relates to mechanically-induced C-fiber action potential firing. The note with it: mouse skin-nerve preparation; cited from earlier work.
Data set [3] deals with capsaicin-induced action potential firing in rat DRG neurons. Description: Multi-electrode array (MEA), capsaicin-induced action potential firing in rat DRG neurons. The format is cell-based. The note with it: cultured rat DRG neurons, 25 nM capsaicin (EC80) co-applied, 37°C, six replicate wells, read-out: IC50 for block of capsaicin-induced action potential firing. On the procedure:
Action potentials of cultured postnatal day 2 rat DRG neurons (Lonza, Walkersville, MD) were detected using the Maestro multi-well plate-based MEA system (Axion Biosystems, Atlanta, GA). A 48-well MEA plate containing 16 electrodes/well was pre-coated with 10μL 0.1% PEI (Sigma-Aldrich, St. Louis, MO) in borate buffer (50mM boric acid (Fisher Scientific, Waltham, MA), 12mM sodium tetraborate (Sigma-Aldrich), pH 8.4). The plate was incubated at 37°C for 2h, washed 3-times with 200μL sterile ddH2O and then air dried. Next, 10μL of 20μg/mL laminin (Sigma) in Primary Neural Basal Medium (PNBM) (Lonza) was spotted over the PEI-treated electrode surface and incubated for 2h at 37°C. Laminin was removed and immediately replaced with 10μL/well of 7x10^6 cells/mL rat DRGs in PNBM. […] Baseline spontaneous firing was recorded for approximately 1 min. Twenty-five μL of PNBM, 325nM capsaicin (MP Biomedicals, 25nM final, EC80) in PNBM, or 325nM capsaicin plus test compound was then added, and action potentials were continuously recorded for another 2 min with six replicate wells used per condition. MEA data were analyzed using Axion Integrated Studio AxIS2.1 (Axion Biosystems) and GraphPad Prism version 7.02 for Windows (GraphPad Software, La Jolla, CA). […]

Data set [4] concerns mechanically-induced C-fiber action potential firing. More on the design: species or system mouse. On the procedure:
Male C57BL/6 mice (Charles River Laboratories, San Diego, CA) between 2–3 months old (136 total mice used in study) were housed under standard temperature conditions (22–24°C) and illumination (12-hour light/dark cycle with lights on at 6:30 AM) with ad libitum access to fresh water and food. Mice were euthanized by CO2 followed by cervical dislocation. Experimental procedures for mouse skin-saphenous nerve studies were conducted as previously described with the use of 0.1% BSA (Acros) in the bath solution to decrease non-specific loss of peptide to chamber components [32]. Briefly, the saphenous nerve and skin from the left medial dorsum of the hind paw were dissected and mounted in a custom-made organ bath chamber. The proximal saphenous nerve end was passed through a hole into a separate recording chamber, desheathed and teased into fine fibers for extracellular recording. Mechanical responses were evoked by square force waves using a mechanical stimulator before and following peptide application to a small area of the corium (dermis) side of the skin in a custom-made stainless steel ring. Recording and analysis of C-fiber-mediated action potentials were performed in a blinded manner with respect to peptide treatment. […]

Data set [5] concerns the target T1, human NaV1.7. Description: Manual whole cell patch clamp, human NaV1.7. The format is cell-based.
Data set [6] relates to TTX-S sodium channels in rat DRG neurons. The following applies: cited from earlier work.
In data set [7] the test system is TTX-R sodium channels in rat DRG neurons. The following applies: cited from earlier work.

human NaV1.4, sequence (P35499 whole entry): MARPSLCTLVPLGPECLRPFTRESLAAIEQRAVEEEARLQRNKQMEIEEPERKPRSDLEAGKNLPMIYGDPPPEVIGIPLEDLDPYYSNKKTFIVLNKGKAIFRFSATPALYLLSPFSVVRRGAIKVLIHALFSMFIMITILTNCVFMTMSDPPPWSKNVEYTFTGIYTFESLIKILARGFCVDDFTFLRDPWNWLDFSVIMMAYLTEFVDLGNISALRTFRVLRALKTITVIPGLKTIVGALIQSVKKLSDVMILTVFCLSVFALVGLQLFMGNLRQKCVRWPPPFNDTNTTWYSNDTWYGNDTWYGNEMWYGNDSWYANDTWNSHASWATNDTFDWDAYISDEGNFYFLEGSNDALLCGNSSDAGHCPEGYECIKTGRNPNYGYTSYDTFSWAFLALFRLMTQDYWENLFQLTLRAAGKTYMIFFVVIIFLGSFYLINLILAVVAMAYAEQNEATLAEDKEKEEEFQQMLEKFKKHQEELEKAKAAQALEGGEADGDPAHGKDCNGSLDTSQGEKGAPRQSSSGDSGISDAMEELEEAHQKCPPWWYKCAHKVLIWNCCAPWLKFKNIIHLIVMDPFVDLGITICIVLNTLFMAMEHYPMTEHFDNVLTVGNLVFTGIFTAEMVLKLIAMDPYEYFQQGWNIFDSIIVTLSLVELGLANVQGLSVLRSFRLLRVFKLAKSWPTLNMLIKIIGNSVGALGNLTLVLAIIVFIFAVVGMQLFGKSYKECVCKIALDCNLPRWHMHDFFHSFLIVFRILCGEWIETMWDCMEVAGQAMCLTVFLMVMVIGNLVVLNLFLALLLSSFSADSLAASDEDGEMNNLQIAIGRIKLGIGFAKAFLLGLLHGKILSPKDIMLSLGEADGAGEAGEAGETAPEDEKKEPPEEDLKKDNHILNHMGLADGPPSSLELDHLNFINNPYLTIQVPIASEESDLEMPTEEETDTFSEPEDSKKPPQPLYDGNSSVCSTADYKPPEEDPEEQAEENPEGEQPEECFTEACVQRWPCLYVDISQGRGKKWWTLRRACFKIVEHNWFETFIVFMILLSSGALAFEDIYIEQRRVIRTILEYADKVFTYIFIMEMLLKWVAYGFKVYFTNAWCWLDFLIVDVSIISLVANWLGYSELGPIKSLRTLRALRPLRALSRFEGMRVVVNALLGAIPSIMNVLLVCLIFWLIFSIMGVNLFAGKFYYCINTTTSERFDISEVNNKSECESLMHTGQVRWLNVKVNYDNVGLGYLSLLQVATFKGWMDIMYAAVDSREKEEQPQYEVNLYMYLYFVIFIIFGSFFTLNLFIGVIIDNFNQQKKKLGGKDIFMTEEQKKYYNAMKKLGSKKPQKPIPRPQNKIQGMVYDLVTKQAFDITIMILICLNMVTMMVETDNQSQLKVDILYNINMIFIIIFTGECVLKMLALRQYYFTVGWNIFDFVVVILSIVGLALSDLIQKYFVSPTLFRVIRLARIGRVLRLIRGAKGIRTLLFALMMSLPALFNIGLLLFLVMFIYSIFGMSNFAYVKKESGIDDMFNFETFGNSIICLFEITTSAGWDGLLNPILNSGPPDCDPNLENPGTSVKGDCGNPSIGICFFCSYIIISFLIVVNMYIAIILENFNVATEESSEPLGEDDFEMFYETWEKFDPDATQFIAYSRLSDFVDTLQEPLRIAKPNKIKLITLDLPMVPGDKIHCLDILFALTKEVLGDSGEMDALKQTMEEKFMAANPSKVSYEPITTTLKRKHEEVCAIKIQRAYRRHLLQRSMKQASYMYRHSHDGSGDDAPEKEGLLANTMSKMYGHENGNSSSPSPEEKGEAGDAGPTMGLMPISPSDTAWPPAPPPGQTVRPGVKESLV

A word on the IC50: it is the midpoint of a concentration-inhibition curve. Consider `C#CC[C@H](N)C(=O)N[C@@H](Cc1ccc(O)cc1)C(=O)N[C@H]1CSSC[C@@H]2NC(=O)[C@@H]3CSSC[C@@H](C(=O)N[C@@H](CCCNC(=N)N)C(=O)N[C@@H](CCCCN)C(=O)N[C@H](C(=O)N[C@H](C(N)=O)[C@@H](C)CC)[C@@H](C)CC)NC(=O)[C@H](Cc4c[nH]c5ccccc45)NC(=O)[C@H](CC(C)C)NC(=O)[C@H](CCCCN)NC(=O)[C@H](CSSC[C@H](NC(=O)[C@H]([C@@H](C)O)NC(=O)[C@H](Cc4c[nH]c5ccccc45)NC(=O)[C@H](CCCC)NC(=O)[C@H](Cc4c[nH]c5ccccc45)NC(=O)[C@H](CCCCN)NC(=O)[C@H](CCC(N)=O)NC1=O)C(=O)N[C@@H](CC(=O)O)C(=O)N[C@@H](CO)C(=O)N[C@@H](CCCCN)C(=O)N[C@@H](CCCNC(=N)N)C(=O)N[C@@H](C)C(=O)N3)NC(=O)[C@H](CCCNC(=N)N)NC(=O)[C@H](CC(C)C)NC(=O)CNC(=O)[C@H](CCC(=O)O)NC2=O` [Peptide 3, Pra-[Nle6]JzTx-V(1–29)], for which the “selectivity for NaV1.7 over NaV1.4” value on human NaV1.4 (PX platform IC50 ratio) was 5 fold. Further, the IC50 came to 6.2 nM against human NaV1.4, 1090 nM against human NaV1.5 and 1.2 nM at human NaV1.7 [1].

In the case of `COc1cc(-c2cc(F)cc(Cl)c2)c(F)cc1-n1c(=O)ccc2cc(S(=O)(=O)Nc3ccon3)ccc21` [AMG8379], the C-fiber inhibition in data set [2] is 60%.

With `C#CC[C@@H]1NC(=O)[C@@H]2CSSC[C@H](NC(=O)[C@H](Cc3ccc(O)cc3)NC(=O)[C@@H](N)CC#N)C(=O)N[C@@H](CCC(N)=O)C(=O)N[C@@H](CCCCN)C(=O)N[C@@H](Cc3c[nH]c4ccccc34)C(=O)N[C@@H](CCCC)C(=O)N[C@@H](Cc3c[nH]c4ccccc34)C(=O)N[C@@H]([C@@H](C)O)C(=O)N[C@H]3CSSC[C@H](NC(=O)[C@H](CCCNC(=N)N)NC(=O)[C@H](CC(C)C)NC(=O)CNC1=O)C(=O)N[C@@H](CCCCN)C(=O)N[C@@H](CC(C)C)C(=O)N[C@@H](Cc1c[nH]c4ccccc14)C(=O)N[C@H](C(=O)N[C@@H](CCCNC(=N)N)C(=O)N[C@@H](CCCCN)C(=O)N[C@@H](CCC(=O)O)C(=O)N[C@H](C(N)=O)[C@@H](C)CC)CSSC[C@H](NC(=O)[C@H](C)NC(=O)[C@H](CCCNC(=N)N)NC(=O)[C@H](CCCCN)NC(=O)[C@H](CO)NC(=O)[C@H](CC(=O)O)NC3=O)C(=O)N2` [AM-0422, CyA-[Nle6;Pra17;Glu28]JzTx-V(1–29)], the IC50 was 103 nM on human NaV1.4, 21.1 ± 5.7 nM in [3], 880 nM in data set [4] and 966 nM at human NaV1.5.

JzTx-V(1–29) [reference compound]: on human NaV1.7 [5], the hNaV1.7 current blocked is 83 ± 2% and 83 ± 6%; the “reversal of NaV1.7 block by high frequency strong depolarizations to +100 mV” value is given as “partially reversed”. For the same molecule, the IC50 in [6] is 28 nM. In addition, the IC50 in [7] was 30 nM.

The values are drawn from article PMC5933747 (PLoS ONE, 2018).
